From patent US20260130395A1, “Water Dispersible Botanical Compositions” (Aquila Black Limited, priority 2021, published 2026)

Assay: Stability of cannabinoid compounds and Vitamin E components in Beverage 2 (AB Red) by LCMSMS
Assay type: physicochemical

## CCCCCc1cc2c(c(O)c1C(=O)O)[C@@H]1C=C(C)CC[C@H]1C(C)(C)O2 [D9 THCA, delta-9-tetrahydrocannabinolic acid]
Stored at 8° C., 0 days
  Stability of Plant-Derived Cannabinoid Compounds in AB Red: 1.35 µg/mL
Stored at 8° C., 1 days
  Stability of Plant-Derived Cannabinoid Compounds in AB Red: 1.34 µg/mL
Stored at 8° C., 2 days
  Stability of Plant-Derived Cannabinoid Compounds in AB Red: 1.34 µg/mL
Stored at 8° C., 3 days
  Stability of Plant-Derived Cannabinoid Compounds in AB Red: 1.35 µg/mL
Stored at 8° C., 5 days
  Stability of Plant-Derived Cannabinoid Compounds in AB Red: 1.36 µg/mL
Stored at 8° C., 8 days
  Stability of Plant-Derived Cannabinoid Compounds in AB Red: 1.35 µg/mL
Stored at 8° C., 9 days
  Stability of Plant-Derived Cannabinoid Compounds in AB Red: 1.36 µg/mL
Stored at 8° C., 10 days
  Stability of Plant-Derived Cannabinoid Compounds in AB Red: 1.35 µg/mL
Stored at 8° C., 11 days
  Stability of Plant-Derived Cannabinoid Compounds in AB Red: 1.35 µg/mL
Stored at 8° C., 12 days
  Stability of Plant-Derived Cannabinoid Compounds in AB Red: 1.32 µg/mL
Stored at 8° C., 15 days
  Stability of Plant-Derived Cannabinoid Compounds in AB Red: 1.33 µg/mL
Stored at 8° C., 16 days
  Stability of Plant-Derived Cannabinoid Compounds in AB Red: 1.31 µg/mL
Stored at 8° C., 17 days
  Stability of Plant-Derived Cannabinoid Compounds in AB Red: 1.34 µg/mL
Stored at 8° C., 18 days
  Stability of Plant-Derived Cannabinoid Compounds in AB Red: 1.35 µg/mL
Stored at 8° C., 19 days
  Stability of Plant-Derived Cannabinoid Compounds in AB Red: 1.32 µg/mL
Stored at 8° C., 22 days
  Stability of Plant-Derived Cannabinoid Compounds in AB Red: 1.34 µg/mL
Stored at 8° C., 23 days
  Stability of Plant-Derived Cannabinoid Compounds in AB Red: 1.33 µg/mL
Stored at 8° C., 24 days
  Stability of Plant-Derived Cannabinoid Compounds in AB Red: 1.33 µg/mL
Stored at 8° C., 25 days
  Stability of Plant-Derived Cannabinoid Compounds in AB Red: 1.34 µg/mL
Stored at 8° C., 26 days
  Stability of Plant-Derived Cannabinoid Compounds in AB Red: 1.33 µg/mL
Stored at 8° C., 29 days
  Stability of Plant-Derived Cannabinoid Compounds in AB Red: 1.35 µg/mL
Stored at 8° C., 30 days
  Stability of Plant-Derived Cannabinoid Compounds in AB Red: 1.31 µg/mL
Stored at 8° C., 60 days
  Stability of Plant-Derived Cannabinoid Compounds in AB Red: 1.32 µg/mL
Stored at 8° C., 90 days
  Stability of Plant-Derived Cannabinoid Compounds in AB Red: 1.34 µg/mL
Stored at 8° C., 120 days
  Stability of Plant-Derived Cannabinoid Compounds in AB Red: 1.30 µg/mL
Stored at 8° C., 150 days
  Stability of Plant-Derived Cannabinoid Compounds in AB Red: 1.34 µg/mL
Stored at 8° C., 180 days
  Stability of Plant-Derived Cannabinoid Compounds in AB Red: 1.30 µg/mL
Stored at 8° C., 210 days
  Stability of Plant-Derived Cannabinoid Compounds in AB Red: 1.33 µg/mL
Stored at 8° C., 240 days
  Stability of Plant-Derived Cannabinoid Compounds in AB Red: 1.32 µg/mL
Stored at 8° C., 270 days
  Stability of Plant-Derived Cannabinoid Compounds in AB Red: 1.33 µg/mL
Stored at 8° C., 300 days
  Stability of Plant-Derived Cannabinoid Compounds in AB Red: 1.30 µg/mL
Stored at 8° C., 330 days
  Stability of Plant-Derived Cannabinoid Compounds in AB Red: 1.34 µg/mL
Stored at 8° C., 360 days
  Stability of Plant-Derived Cannabinoid Compounds in AB Red: 1.31 µg/mL
Stored at 8° C., 390 days
  Stability of Plant-Derived Cannabinoid Compounds in AB Red: 1.29 µg/mL
Stored at 8° C., 420 days
  Stability of Plant-Derived Cannabinoid Compounds in AB Red: 1.29 µg/mL
Stored at 8° C., 450 days
  Stability of Plant-Derived Cannabinoid Compounds in AB Red: 1.31 µg/mL
Stored at 8° C., 480 days
  Stability of Plant-Derived Cannabinoid Compounds in AB Red: 1.28 µg/mL
Stored at 8° C., 510 days
  Stability of Plant-Derived Cannabinoid Compounds in AB Red: 1.25 µg/mL
Stored at 8° C., 540 days
  Stability of Plant-Derived Cannabinoid Compounds in AB Red: 1.26 µg/mL
Stored at 8° C., 570 days
  Stability of Plant-Derived Cannabinoid Compounds in AB Red: 1.24 µg/mL
Stored at 21-25° C., 0 days
  Stability of Plant-Derived Cannabinoid Compounds in AB Red: 1.35 µg/mL
Stored at 21-25° C., 1 days
  Stability of Plant-Derived Cannabinoid Compounds in AB Red: 1.34 µg/mL
Stored at 21-25° C., 2 days
  Stability of Plant-Derived Cannabinoid Compounds in AB Red: 1.30 µg/mL
Stored at 21-25° C., 3 days
  Stability of Plant-Derived Cannabinoid Compounds in AB Red: 1.32 µg/mL
Stored at 21-25° C., 5 days
  Stability of Plant-Derived Cannabinoid Compounds in AB Red: 1.36 µg/mL
Stored at 21-25° C., 8 days
  Stability of Plant-Derived Cannabinoid Compounds in AB Red: 1.36 µg/mL
Stored at 21-25° C., 9 days
  Stability of Plant-Derived Cannabinoid Compounds in AB Red: 1.35 µg/mL
Stored at 21-25° C., 10 days
  Stability of Plant-Derived Cannabinoid Compounds in AB Red: 1.33 µg/mL
Stored at 21-25° C., 11 days
  Stability of Plant-Derived Cannabinoid Compounds in AB Red: 1.33 µg/mL
Stored at 21-25° C., 12 days
  Stability of Plant-Derived Cannabinoid Compounds in AB Red: 1.33 µg/mL
Stored at 21-25° C., 15 days
  Stability of Plant-Derived Cannabinoid Compounds in AB Red: 1.30 µg/mL
Stored at 21-25° C., 16 days
  Stability of Plant-Derived Cannabinoid Compounds in AB Red: 1.36 µg/mL
Stored at 21-25° C., 17 days
  Stability of Plant-Derived Cannabinoid Compounds in AB Red: 1.35 µg/mL
Stored at 21-25° C., 18 days
  Stability of Plant-Derived Cannabinoid Compounds in AB Red: 1.36 µg/mL
Stored at 21-25° C., 19 days
  Stability of Plant-Derived Cannabinoid Compounds in AB Red: 1.31 µg/mL
Stored at 21-25° C., 22 days
  Stability of Plant-Derived Cannabinoid Compounds in AB Red: 1.34 µg/mL
Stored at 21-25° C., 23 days
  Stability of Plant-Derived Cannabinoid Compounds in AB Red: 1.36 µg/mL
Stored at 21-25° C., 24 days
  Stability of Plant-Derived Cannabinoid Compounds in AB Red: 1.30 µg/mL
Stored at 21-25° C., 25 days
  Stability of Plant-Derived Cannabinoid Compounds in AB Red: 1.35 µg/mL
Stored at 21-25° C., 26 days
  Stability of Plant-Derived Cannabinoid Compounds in AB Red: 1.32 µg/mL
Stored at 21-25° C., 29 days
  Stability of Plant-Derived Cannabinoid Compounds in AB Red: 1.33 µg/mL
Stored at 21-25° C., 30 days
  Stability of Plant-Derived Cannabinoid Compounds in AB Red: 1.34 µg/mL
Stored at 21-25° C., 60 days
  Stability of Plant-Derived Cannabinoid Compounds in AB Red: 1.28 µg/mL
Stored at 21-25° C., 90 days
  Stability of Plant-Derived Cannabinoid Compounds in AB Red: 1.34 µg/mL
Stored at 21-25° C., 120 days
  Stability of Plant-Derived Cannabinoid Compounds in AB Red: 1.34 µg/mL
Stored at 21-25° C., 150 days
  Stability of Plant-Derived Cannabinoid Compounds in AB Red: 1.28 µg/mL
Stored at 21-25° C., 180 days
  Stability of Plant-Derived Cannabinoid Compounds in AB Red: 1.30 µg/mL
Stored at 21-25° C., 210 days
  Stability of Plant-Derived Cannabinoid Compounds in AB Red: 1.33 µg/mL
Stored at 21-25° C., 240 days
  Stability of Plant-Derived Cannabinoid Compounds in AB Red: 1.31 µg/mL
Stored at 21-25° C., 270 days
  Stability of Plant-Derived Cannabinoid Compounds in AB Red: 1.27 µg/mL
Stored at 21-25° C., 300 days
  Stability of Plant-Derived Cannabinoid Compounds in AB Red: 1.27 µg/mL
Stored at 21-25° C., 330 days
  Stability of Plant-Derived Cannabinoid Compounds in AB Red: 1.28 µg/mL
Stored at 21-25° C., 360 days
  Stability of Plant-Derived Cannabinoid Compounds in AB Red: 1.29 µg/mL
Stored at 21-25° C., 390 days
  Stability of Plant-Derived Cannabinoid Compounds in AB Red: 1.26 µg/mL
Stored at 21-25° C., 420 days
  Stability of Plant-Derived Cannabinoid Compounds in AB Red: 1.26 µg/mL
Stored at 21-25° C., 450 days
  Stability of Plant-Derived Cannabinoid Compounds in AB Red: 1.31 µg/mL
Stored at 21-25° C., 480 days
  Stability of Plant-Derived Cannabinoid Compounds in AB Red: 1.29 µg/mL
Stored at 21-25° C., 510 days
  Stability of Plant-Derived Cannabinoid Compounds in AB Red: 1.27 µg/mL
Stored at 21-25° C., 540 days
  Stability of Plant-Derived Cannabinoid Compounds in AB Red: 1.29 µg/mL
Stored at 21-25° C., 570 days
  Stability of Plant-Derived Cannabinoid Compounds in AB Red: 1.24 µg/mL
